2 compounds from patent US8524304B2, “High-potency sweetener composition with probiotics/prebiotics and compositions sweetened therewith” (The Coca-Cola Company, priority 2005, dated 2013) can be followed below.

Molecules are shown by their SMILES. Some results are limits rather than exact numbers.

Series [1] is described as follows: Rate of dissolution of rebaudioside A polymorph and amorphous forms in H2O at 25° C. The format is physicochemical.
The format of series [2] is physicochemical. As to the method: A solution of rebaudioside A (>97% pure by HPLC ) was prepared in double distilled water (12.5 gm in 50 mL, 25% concentration) by stirring the mixture at 40° C. for 5 minutes. An amorphous form of rebaudioside A was formed by immediately using the clear solution for spray drying with the Lab-Plant spray drier SD-04 instrument (Lab-Plant Ltd., West Yorkshire, U.K.). The solution was fed through the feed pump into the nozzle atomizer which atomized it into a spray of droplets with the help of a constant flow of nitrogen/air. […] This dry powder (11-12 g, H2O 6.74%) was discharged continuously from the drying chamber and was collected in a bottle.

Series [3] is described as follows: Sensory evaluation of sweetness linger by a panel of experts. In kind it is in vivo. On the set-up: key: 0: no sweetness linger; 1: very slight sweetness linger; 2: slight sweetness linger; 3: moderate sweetness linger; 4: moderately high sweetness linger; 5: high sweetness linger. To be noted: scale 0-5. The procedure:
Sensory evaluation of the samples prepared in Example Set G was carried out under the following protocol, similar to that described hereinabove. In this test protocol, none of the samples were swallowed. All samples were expectorated and the mouth was rinsed with water after the tasting. Immediately upon sensing maximal sweetness, the sample was expectorated, the mouth was rinsed with water and the rate of sweetness decay (“Sweetness Linger”) was measured, where attention was focused on the sweetness 3-4 min after the water rinse. After sample tasting was complete, a salty oyster cracker was chewed followed by a water rinse, and at least 5 minutes followed before tasting the next sample. The sweetness linger was rated by a panel of experts in the sensory evaluation of foods and beverages using the following scale: 0=no sweetness linger, 1=very slight sweetness linger, 2=slight sweetness linger, 3=moderate sweetness linger, 4=moderately high sweetness linger, 5=high sweetness linger.
The “Sweetness Linger” rating for sucrose observed by this protocol is defined as 0. The Sweetness Linger of a 500 ppm of REBA control sample is defined as 5. Experimental samples were tasted by the same protocol, always allowing sufficient time between samples to ensure re-equilibration of the sensory system. Re-tasting of control samples during the course of the experiment was allowed and encouraged. […]
Sweet taste improving compositions were combined with a REBA solution to determine their effect on sweetness linger, Screening of the initial sample, or further dilutions, allowed identification of concentrations which were just above-threshold, herein defined as “near-threshold concentrations.” The near-threshold additive concentrations, a 6- to 100-fold higher higher additive concentration (depending on the off-taste intensity), and a mid-level additive concentration (halfway between the near-threshold and higher additive concentration) were evaluated to determine the effect on sweetness linger of a REBA solution. […]

For `C=C1C[C@@]23CC[C@H]4[C@@](C)(CCC[C@@]4(C)C(=O)O[C@@H]4O[C@H](CO)[C@@H](O)[C@H](O)[C@H]4O)[C@@H]2CC[C@]1(O[C@@H]1O[C@H](CO)[C@@H](O)[C@H](O[C@@H]2O[C@H](CO)[C@@H](O)[C@H](O)[C@H]2O)[C@H]1O[C@@H]1O[C@H](CO)[C@@H](O)[C@H](O)[C@H]1O)C3` [Form 4, rebaudioside A], the “Rate of dissolution in H2O at 25° C.” value in series [1] is recorded as “High (>35%/5 %/5 minutes”. In series [2], the “solubility in water at room temperature” value is listed as over 35.0%.
Regarding `C=C1C[C@@]23CC[C@H]4[C@@](C)(CCC[C@@]4(C)C(=O)O[C@@H]4O[C@H](CO)[C@@H](O)[C@H](O)[C@H]4O)[C@@H]2CC[C@]1(O[C@@H]1O[C@H](CO)[C@@H](O)[C@H](O[C@@H]2O[C@H](CO)[C@@H](O)[C@H](O)[C@H]2O)[C@H]1O[C@@H]1O[C@H](CO)[C@@H](O)[C@H](O)[C@H]1O)C3` [REBA, rebaudioside A], the sweetness linger was 5 in series [3] (Example Set G: citric acid/potassium citrate composition equivalent to a diet lemon-lime beverage, 400 ppm REBA base, sweetness 3-4 min after water rinse) and 5 in series [3] (Example Set H: carbon-treated water with phosphoric acid (75%) to pH 2.4-2.5, 500 ppm REBA base). In addition, in series [3] (control ratings defined for the protocol), the “Sweetness Linger rating” value amounted to 5.
